These results are taken from patent publication US20080095786A9, “Compositions And Methods For Preventing And Treating Endotoxin-Related Diseases And Conditions” (priority 2003, published 2008).

SMILES strings stand for the structures.

The nature of series [1]: Antioxidant screening experiments: stability of E5564 to free-radical oxidation. The note with it: for Comments (effectiveness of antioxidant in stabilizing E5564 to oxidation): 18-22 hours.
Excerpt: We tested several antioxidant compounds to determine whether they impact the stability of E5564 to free-radical oxidation.
A short description of series [2]: Relative stability of E5564 in aqueous solution by formation of major oxidative degradants (FIG. 1). The format is physicochemical. As to conditions: inclusion of BHA, 7 μg/vial. The protocol: FIG. 1 is a graph showing the relative stability of E5564 in aqueous solution prepared with different drug substance lots, as measured by the formation of major oxidative degradants.
The following is a detailed description of an example of a method for formulating E5564. As is discussed further below, key features of this method include the following. A small amount (7 μg/vial) of butylated hydroxyanisole (BHA) was added to the formulation to prevent oxidation of the E5564 in aqueous solution. […] In addition, the sodium content of the solution was lowered by replacing sodium phosphate salts with phosphoric acid for pH adjustment, to enhance micelle size stability during the freeze-drying manufacturing step, and a high shelf temperature was used in the freeze-drying step of the process.

Series [3] is described as follows: Stabilization of E5564 micelle size during lyophilization (freeze-drying). As to conditions: for Micelle Size (hydrodynamic diameter): after lyophilization; for Stabilizing the micelle size of E5564 during freeze-drying: disaccharide in formulation.
[4] abbreviates: time 0-4 hours, E5564 solution with the labelled antioxidant.
The mark [5] stands for this setting: time 18-22 hours, E5564 solution with the labelled antioxidant (row 'none' = E5564 without antioxidant).
Where [6] appears, read: time 0 hours, E5564 solution with the labelled antioxidant (row 'none' = E5564 without antioxidant).

On to `O[C@H](CS)[C@H](O)CS` (racemic) [dithiothreitol], for which the “Comments (effectiveness of antioxidant in stabilizing E5564 to oxidation)” value (shortened to “Comments”) in series [1] is recorded as “effective”.

For the compound `O=C1O[C@H]([C@@H](O)CO)C(O)=C1O` [Ascorbic Acid], in series [1], the “Comments” value is on record as “Not useful, sta-”. The “E5564 conc. (% initial)” value in series [1] (setting [4]) worked out at 100 % initial; in series [1] (setting [5]), 97.4 % initial.

For `CCCCCCCCCCCCCCCC(=O)OC[C@H](O)[C@H]1OC(=O)C(O)=C1O` [Ascorbyl Palmitate], the “Comments” value in series [1] is reported as “Not useful, sta-”. Further, the “E5564 conc. (% initial)” value was determined as 100 % initial in series [1] (setting [4]) and 92.4 % initial in series [1] (setting [5]).

For the compound `COc1ccc(O)c(C(C)(C)C)c1` [BHA, butylated hydroxyanisole], the “Comments” value in series [1] is reported as “Effective”. Moreover, the “E5564 conc. (% initial)” value in series [1] (setting [6]) came out at 100 % initial; in series [1] (setting [5]), 102.3 % initial. Further, the “Major Oxidative Degradant” value in series [1] (setting [6]) is on record as 0.68; in series [1] (setting [5]) it was 0.27. Further, the “Stability of E5564 drug product in solution” value in series [2] is reported as “increases its stability”.

`Cc1cc(C(C)(C)C)c(O)c(C(C)(C)C)c1` [BHT, butylated hydroxytoluene]: the “Comments” value in series [1] is given as “Effective”. In addition, the “E5564 conc. (% initial)” value was found to be 100 % initial in series [1] (setting [6]) and 102.8 % initial in series [1] (setting [5]).

With `CCCCCC/C=C\CCCCCCCCCC(=O)N[C@H]1[C@H](OC[C@H]2O[C@H](OP(=O)([O-])[O-])[C@H](NC(=O)CC(=O)CCCCCCCCCCC)[C@@H](OCCCCCCCCCC)[C@@H]2O)O[C@H](COC)[C@@H](OP(=O)([O-])[O-])[C@@H]1OCC[C@@H](CCCCCCC)OC.[Na+].[Na+].[Na+].[Na+]` [E5564], the “Comments” value in series [1] is reported as “Rapid degradation”. Also, the “E5564 conc. (% initial)” value in series [1] (setting [6]) came out at 100 % initial; in series [1] (setting [5]) it was 91.3 % initial. Further, the “Major Oxidative Degradant” value in series [1] (setting [6]) was 1.12; in series [1] (setting [5]), 6.02. The “Stability of micelle size” value in series [3] (2 mM Na+ in formulation (excluding Na+ from the drug)) is listed as “good stability”. Moreover, the “Maintaining the desired micelle size during freeze-drying” value in series [3] (10 mM Na+ in formulation (excluding sodium from the drug)) is on record as “works for some, but not all, lots”. For the same compound, the “Micelle Size (hydrodynamic diameter)” value in series [3] (1% (w/v) lactose in formulation) is reported as 16 nm; in series [3] (2% (w/v) lactose in formulation), 13 nm; in series [3] (5% (w/v) lactose in formulation), 8 nm; in series [3] (10% (w/v) lactose in formulation), 7 nm.

For `OCC(O)CS` (centres unmarked) [Monothioglycerol, monothioglycerol], the “Comments” value in series [1] is recorded as “Effective”. The “E5564 conc. (% initial)” value in series [1] (setting [4]) was found to be 100 % initial; in series [1] (setting [5]) it was 101.3 % initial.

As for `CCCOC(=O)c1cc(O)c(O)c(O)c1` [Propyl Gallate, propyl gallate], the “Comments” value in series [1] is given as “Effective”. For the same compound, the “E5564 conc. (% initial)” value stood at 100 % initial in series [1] (setting [6]) and 100.6 % initial in series [1] (setting [5]).

`O=S([O-])[O-].[Na+].[Na+]` [Sodium Sulfite, sodium sulfite]: the “Comments” value in series [1] is given as “Effective”. Besides, in series [1] (setting [4]), the “E5564 conc. (% initial)” value came out at 100 % initial and the “Major Oxidative Degradant” value worked out at 0.13. Also, in series [1] (setting [5]), the “E5564 conc. (% initial)” value came to 101.8 % initial and the “Major Oxidative Degradant” value worked out at 0.25.

Regarding `O=S([O-])([O-])=S.[Na+].[Na+]` [Sodium Thiosulfate, sodium thiosulfate], the “Comments” value in series [1] is “Effective”. In addition, the “E5564 conc. (% initial)” value in series [1] (setting [4]) is on record as 100 % initial; in series [1] (setting [5]), 100.2 % initial. Further, the “Major Oxidative Degradant” value in series [1] (setting [4]) was found to be 0.09; in series [1] (setting [5]), 0.19.

Consider `CC(=O)Oc1c(C)c(C)c2c(c1C)CCC(C)(CCC[C@H](C)CCC[C@H](C)CCCC(C)C)O2` (some centres unmarked) [Vitamin E Acetate], for which the “E5564 conc. (% initial)” value in series [1] (setting [4]) came out at 100 % initial; in series [1] (setting [5]), 94.2 % initial.

Consider `OC[C@H]1O[C@@H](O[C@H]2[C@H](O)[C@@H](O)C(O)O[C@@H]2CO)[C@H](O)[C@@H](O)[C@H]1O` (some centres unmarked) [lactose], for which the “Stabilizing the micelle size of E5564 during freeze-drying” value in series [3] is reported as “effective”.

In the case of `OC[C@H]1O[C@@](CO)(O[C@H]2O[C@H](CO)[C@@H](O)[C@H](O)[C@H]2O)[C@@H](O)[C@@H]1O` [sucrose], the “Stabilizing the micelle size of E5564 during freeze-drying” value in series [3] is recorded as “effective”.
